Reference: the supplement of paper PMC10307832

Legend:
Assay in all cases: relative viability (nuclei count vs DMSO), 5 days (fraction); higher = more cells survive
EKVX = system: EKVX
Summary of the method: (§1)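 Each reported value is a median over duplicate plates. It expresses relative viability: treated-well nuclei count divided by vehicle-well nuclei count. Lung cancer cell lines in 1536-well plates were dosed by pin tool a day after seeding, alone with one drug or with a fixed anchor-drug dose plus five library-drug doses (not always all listed) in √10 steps, and nuclei were counted after 5 days.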

EPLC-272H = system: EPLC-272H
Summary of the method: as §1

H3255 = system: H3255
Summary of the method: as §1

HCC-827 = system: HCC-827
Summary of the method: as §1

HOP-62 = system: HOP-62
Summary of the method: as §1

LCLC-97TM1 = system: LCLC-97TM1
Summary of the method: as §1

LK-2 = system: LK-2
Summary of the method: as §1

LU99A = system: LU99A
Summary of the method: as §1

LXF-289 = system: LXF-289
Summary of the method: as §1

NCI-H1355 = system: NCI-H1355
Summary of the method: as §1

NCI-H1650 = system: NCI-H1650
Summary of the method: as §1

NCI-H1993 = system: NCI-H1993
Summary of the method: as §1

NCI-H2170 = system: NCI-H2170
Summary of the method: as §1

NCI-H2228 = system: NCI-H2228
Summary of the method: as §1

NCI-H2405 = system: NCI-H2405
Summary of the method: as §1

NCI-H3122 = system: NCI-H3122
Summary of the method: as §1

PC-3 [JPC-3] = system: PC-3 [JPC-3]
Summary of the method: as §1

SK-LU-1 = system: SK-LU-1
Summary of the method: as §1

SW 1573 = system: SW 1573
Summary of the method: as §1

UMC-11 = system: UMC-11
Summary of the method: as §1

Question: Which relative viability (EKVX; first compound 0.02 µM) does the source give for `CN1CCN(CCOc2cc(OC3CCOCC3)c3c(Nc4c(Cl)ccc5c4OCO5)ncnc3c2)CC1` [Saracatinib] + CS(=O)(=O)CCNCc1ccc(-c2ccc3ncnc(Nc4ccc(OCc5cccc(F)c5)c(Cl)c4)c3c2)o1 [Lapatinib] (partner 2 µM) here?
Answer: 0.222

Question: And the relative viability (EKVX; first compound 0.2 µM)?
Answer: 0.165

Question: What about the relative viability (EKVX; first compound 0.6325 µM) of the same compound?
Answer: 0.238

Question: And the relative viability (EKVX; first compound 2 µM)?
Answer: 0.131

Question: And the relative viability (EPLC-272H; first compound 0.02 µM)?
Answer: 1.01

Question: And the relative viability (EPLC-272H; first compound 0.2 µM)?
Answer: 0.806

Question: What about the relative viability (EPLC-272H; first compound 0.6325 µM) of the same compound?
Answer: 1.05

Question: What about the relative viability (EPLC-272H; first compound 2 µM) of the same compound?
Answer: 0.893

Question: What about the relative viability (H3255; first compound 0.02 µM) of the same compound?
Answer: 0.27

Question: And the relative viability (H3255; first compound 0.2 µM)?
Answer: 0.241

Question: What about the relative viability (H3255; first compound 0.6325 µM) of the same compound?
Answer: 0.271

Question: And the relative viability (H3255; first compound 2 µM)?
Answer: 0.239

Question: And the relative viability (HCC-827; first compound 0.02 µM)?
Answer: 0.174

Question: And the relative viability (HCC-827; first compound 0.2 µM)?
Answer: 0.202

Question: What about the relative viability (HCC-827; first compound 0.6325 µM) of the same compound?
Answer: 0.199

Question: What about the relative viability (HCC-827; first compound 2 µM) of the same compound?
Answer: 0.163

Question: And the relative viability (HOP-62; first compound 0.02 µM)?
Answer: 1.21

Question: And the relative viability (HOP-62; first compound 0.2 µM)?
Answer: 0.816

Question: What about the relative viability (HOP-62; first compound 0.6325 µM) of the same compound?
Answer: 1.05

Question: And the relative viability (HOP-62; first compound 2 µM)?
Answer: 1.21

Question: And the relative viability (LCLC-97TM1; first compound 0.02 µM)?
Answer: 1.34

Question: And the relative viability (LCLC-97TM1; first compound 0.2 µM)?
Answer: 0.771

Question: And the relative viability (LCLC-97TM1; first compound 0.6325 µM)?
Answer: 0.861

Question: What about the relative viability (LCLC-97TM1; first compound 2 µM) of the same compound?
Answer: 0.401

Question: What about the relative viability (LK-2; first compound 0.02 µM) of the same compound?
Answer: 0.95

Question: And the relative viability (LK-2; first compound 0.2 µM)?
Answer: 0.715

Question: What about the relative viability (LK-2; first compound 0.6325 µM) of the same compound?
Answer: 0.725

Question: And the relative viability (LK-2; first compound 2 µM)?
Answer: 0.504

Question: And the relative viability (LU99A; first compound 0.02 µM)?
Answer: 0.963

Question: What about the relative viability (LU99A; first compound 0.2 µM) of the same compound?
Answer: 0.748

Question: And the relative viability (LU99A; first compound 0.6325 µM)?
Answer: 0.969

Question: And the relative viability (LU99A; first compound 2 µM)?
Answer: 0.743

Question: What about the relative viability (LXF-289; first compound 0.02 µM) of the same compound?
Answer: 0.95

Question: And the relative viability (LXF-289; first compound 0.2 µM)?
Answer: 0.895

Question: And the relative viability (LXF-289; first compound 0.6325 µM)?
Answer: 0.955

Question: And the relative viability (LXF-289; first compound 2 µM)?
Answer: 0.901

Question: What about the relative viability (NCI-H1355; first compound 0.02 µM) of the same compound?
Answer: 1.05

Question: And the relative viability (NCI-H1355; first compound 0.2 µM)?
Answer: 0.956

Question: And the relative viability (NCI-H1355; first compound 0.6325 µM)?
Answer: 1.18

Question: What about the relative viability (NCI-H1355; first compound 2 µM) of the same compound?
Answer: 0.894

Question: And the relative viability (NCI-H1650; first compound 0.02 µM)?
Answer: 0.779

Question: What about the relative viability (NCI-H1650; first compound 0.2 µM) of the same compound?
Answer: 0.803

Question: And the relative viability (NCI-H1650; first compound 0.6325 µM)?
Answer: 0.573

Question: And the relative viability (NCI-H1650; first compound 2 µM)?
Answer: 0.47

Question: What about the relative viability (NCI-H1993; first compound 0.02 µM) of the same compound?
Answer: 0.864

Question: And the relative viability (NCI-H1993; first compound 0.2 µM)?
Answer: 0.737

Question: And the relative viability (NCI-H1993; first compound 2 µM)?
Answer: 0.691

Question: And the relative viability (NCI-H2170; first compound 0.02 µM)?
Answer: 0.28

Question: What about the relative viability (NCI-H2170; first compound 0.2 µM) of the same compound?
Answer: 0.246

Question: And the relative viability (NCI-H2170; first compound 0.6325 µM)?
Answer: 0.293

Question: What about the relative viability (NCI-H2170; first compound 2 µM) of the same compound?
Answer: 0.231

Question: And the relative viability (NCI-H2228; first compound 0.02 µM)?
Answer: 1.35

Question: And the relative viability (NCI-H2228; first compound 0.2 µM)?
Answer: 0.995

Question: What about the relative viability (NCI-H2228; first compound 0.6325 µM) of the same compound?
Answer: 1.07

Question: And the relative viability (NCI-H2228; first compound 2 µM)?
Answer: 0.674

Question: What about the relative viability (NCI-H2405; first compound 0.02 µM) of the same compound?
Answer: 1.03

Question: And the relative viability (NCI-H2405; first compound 0.2 µM)?
Answer: 0.966

Question: And the relative viability (NCI-H2405; first compound 0.6325 µM)?
Answer: 0.984

Question: And the relative viability (NCI-H2405; first compound 2 µM)?
Answer: 0.511

Question: What about the relative viability (NCI-H3122; first compound 0.02 µM) of the same compound?
Answer: 1.03

Question: And the relative viability (NCI-H3122; first compound 0.6325 µM)?
Answer: 0.894

Question: What about the relative viability (NCI-H3122; first compound 2 µM) of the same compound?
Answer: 0.781

Question: What about the relative viability (PC-3 [JPC-3]; first compound 0.02 µM) of the same compound?
Answer: 0.439

Question: And the relative viability (PC-3 [JPC-3]; first compound 0.2 µM)?
Answer: 0.393

Question: What about the relative viability (PC-3 [JPC-3]; first compound 0.6325 µM) of the same compound?
Answer: 0.43

Question: What about the relative viability (PC-3 [JPC-3]; first compound 2 µM) of the same compound?
Answer: 0.402

Question: And the relative viability (SK-LU-1; first compound 0.02 µM)?
Answer: 0.818

Question: What about the relative viability (SK-LU-1; first compound 0.2 µM) of the same compound?
Answer: 0.572

Question: What about the relative viability (SK-LU-1; first compound 0.6325 µM) of the same compound?
Answer: 0.45

Question: And the relative viability (SK-LU-1; first compound 2 µM)?
Answer: 0.406

Question: What about the relative viability (SW 1573; first compound 0.02 µM) of the same compound?
Answer: 1.27

Question: And the relative viability (SW 1573; first compound 0.2 µM)?
Answer: 1.1

Question: What about the relative viability (SW 1573; first compound 0.6325 µM) of the same compound?
Answer: 1.16

Question: And the relative viability (SW 1573; first compound 2 µM)?
Answer: 1.14

Question: And the relative viability (UMC-11; first compound 0.02 µM)?
Answer: 0.931

Question: What about the relative viability (UMC-11; first compound 0.2 µM) of the same compound?
Answer: 0.763

Question: What about the relative viability (UMC-11; first compound 0.6325 µM) of the same compound?
Answer: 0.896

Question: And the relative viability (UMC-11; first compound 2 µM)?
Answer: 0.78
